Assay results published in patent publication US11571423B2, “Small molecule modulators of human sting” (Curadev Pharma Limited, priority 2017, dated 2023).

molecular target: hSTING(R232) (Homo sapiens, UniProt Q86WV6, H232R); assay: Luciferase reporter assay in HEK293T-hSTING-Luciferase cells, R232 (wild type) human STING; assay type: cell-based; details: 20 hr stimulation, read-out: R232 human activity (EC50 range)
Description: Stable Cell Line Generation • a) Stable STING expressing cells—Stable HEK293T STING-expressing cell lines were generated using plasmids purchased from Invivogen, CA, USA, that contain STING cDNA cloned into the pUNO-1 vector under hEF1-HTLV promoter and containing the Blasticidin selection cassette. The plasmids hSTING(R232), hSTING(H232), hSTING(HAQ) were directly procured from Invivogen while hSTING (AQ) and hSTING (Q) were derived from hSTING(HAQ) and hSTING (R232) plasmids respectively by using a PCR based site directed mutagenesis method. These vectors were individually transfected into HEK293T cells using Lipofectamine (Invitrogen) and transfected cells were selected under Blasticidin selection. These transfected cells were further subjected to clonal selection using the limiting dilution method to obtain clonally pure populations of HEK cells transfected with each of the above mentioned human STING variants. Only those clones were selected in which ligand independent activation of STING was minimal. • b) Stable Luciferase reporter gene expressing cells—Stable HEK293T Luciferase reporter gene expressing cell lines were generated using pCDNA4 plasmids under an IRF-inducible promoter. This promoter is comprised of five tandem interferon-stimulated response elements (ISRE) fused to an ISG54 minimal promoter. This vector was transfected into HEK293T cells using Lipofectamine (Invitrogen) and transfected cells were selected under Zeocin selection. These transfected cells were further subjected to clonal selection using the limiting dilution method to obtain clonally pure populations of HEK cells transfected the Luciferase reporter construct. Only those clones were selected in which ligand independent induction of luciferase was minimal.
5×10^5 clonally selected HEK293T-hSTING-Luciferase cells were seeded in 384-well plates in growth medium and stimulated with novel compounds. After 20 hr of stimulation supernatant were removed and secretary reporter gene activity were measured using the Quanti-Luc detection system (Invivogen) on a Spectramax i3X luminometer.
In the tables below, EC50 value ranges for exemplary compounds are given.
All compounds were first tested in a primary screen to obtain a ‘fold-induction’ over baseline levels of protein activity.

Sequence of hSTING(R232) (Q86WV6 whole entry H232R): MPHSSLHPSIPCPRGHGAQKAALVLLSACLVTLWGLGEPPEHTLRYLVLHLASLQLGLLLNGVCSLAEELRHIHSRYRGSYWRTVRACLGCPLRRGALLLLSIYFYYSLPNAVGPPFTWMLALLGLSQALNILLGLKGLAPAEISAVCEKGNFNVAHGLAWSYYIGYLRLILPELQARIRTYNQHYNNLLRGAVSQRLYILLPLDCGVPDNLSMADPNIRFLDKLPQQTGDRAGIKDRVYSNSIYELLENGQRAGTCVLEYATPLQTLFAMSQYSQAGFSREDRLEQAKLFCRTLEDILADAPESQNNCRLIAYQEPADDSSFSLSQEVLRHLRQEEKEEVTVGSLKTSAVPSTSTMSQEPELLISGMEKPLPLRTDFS

Row | EC50 [µM] | Structure (SMILES)
1 | > 10 | O=C(NCc1c(F)cc(F)cc1F)c1ccc2c(c1)N(Cc1cc(F)cc(F)c1)C(=O)N(C1CC1)C2 [Example 3, 3-cyclopropyl-1-(3.5-difluorobenzyl)-2-oxo-N-(2,4,6-trifluorobenzyl)-1,2,3,4-tetrahydroquinazoline-7-carboxamide]
2 | < 1 | CC1c2ccc(C(=O)NCc3c(F)cc(F)cc3F)cc2N(Cc2ccc(F)cc2Cl)C(=O)N1C (stereo not shown) [Example 221, 1-(2-chloro-4-fluorobenzyl)-3,4-dimethyl-2-oxo-N-(2,4,6-trifluorobenzyl)-1,2,3,4-tetrahydroquinazoline-7-carboxamide]
3 | > 10 | Cc1ccc(-c2nc(CN3C(=O)N(C)Cc4ccc(C(=O)NCc5c(F)cc(F)cc5F)cc43)c(C)o2)cc1 [Example 40, 3-methyl-1-((5-methyl-2-(p-tolyl)oxazol-4-yl)methyl)-2-oxo-N-(2,4,6-trifluorobenzyl)-1,2,3,4-tetrahydroquinazoline-7-carboxamide]
4 | > 10 | COc1ccc2cc(CNC(=O)c3ccc4c(c3)N(Cc3c(F)cccc3Cl)C(=O)N(C)C4)oc2c1 [Example 22, 1-(2-chloro-6-fluorobenzyl)-N-((6-methoxybenzofuran-2-yl)methyl)-3-methyl-2-oxo-1,2,3,4-tetrahydroquinazoline-7-carboxamide]
5 | < 1 | CC1c2ccc(C(=O)NCc3c(F)cc(F)cc3F)cc2N(Cc2cc(F)cc(F)c2)C(=O)N1C (stereo not shown) [Example 156, 1-(3,5-difluorobenzyl)-3,4-dimethyl-2-oxo-N-(2,4,6-trifluorobenzyl)-1,2,3,4-tetrahydroquinazoline-7-carboxamide]
6 | < 1 | C[C@H]1c2ccc(C(=O)NCc3c(F)cc(F)cc3F)cc2N(Cc2c(F)ccc(C(=O)NCCO)c2F)C(=O)N1C [Example 143]
7 | > 10 | C[C@H]1c2ccc(C(=O)NCc3c(F)cc(F)cc3F)cc2N(Cc2c(F)cc(OCC(=O)O)cc2F)C(=O)N1C [Example 277, (S)-2-(4-((3,4-dimethyl-2-oxo-7-((2,4,6-trifluorobenzyl)carbamoyl)-3,4-dihydroquinazolin-1(2H)-yl)methyl)-3,5-difluorophenoxy)acetic acid]
8 | > 10 | COc1cccc2cc(CNC(=O)c3ccc4c(c3)N(Cc3c(F)cccc3Cl)C(=O)N(C)C4)oc12 [Example 47, 1-(2-chloro-6-fluorobenzyl)-N-((7-methoxybenzofuran-2-yl)methyl)-3-methyl-2-oxo-1,2,3,4-tetrahydroquinazoline-7-carboxamide]
9 | < 1 | CC1c2ccc(C(=O)NCc3c(F)cc(F)cc3F)cc2N(Cc2ccc(OCCO)cc2F)C(=O)N1C (stereo not shown) [Example 230, 1-(2-fluoro-4-(2-hydroxyethoxy)benzyl)-3,4-dimethyl-2-oxo-N-(2,4,6-trifluorobenzyl)-1,2,3,4-tetrahydroquinazoline-7-carboxamide]
10 | < 1 | CC1c2ccc(C(=O)NCc3c(F)cc(F)cc3F)cc2N(Cc2c(O)cccc2F)C(=O)N1C (stereo not shown) [Example 160, 1-(2-fluoro-6-hydroxybenzyl)-3,4-dimethyl-2-oxo-N-(2,4,6-trifluorobenzyl)-1,2,3,4-tetrahydroquinazoline-7-carboxamide]
11 | > 10 | Cc1cc(CN2C(=O)N(C)Cc3ccc(C(=O)NCc4c(F)cc(F)cc4F)cc32)nn1C [Example 57, l-((l,5-dimethyl-1H-pyrazol-3-yl)methyl)-3-methyl-2-oxo-N-(2,4,6-trifluorobenzyl)-1,2,3,4-tetrahydroquinazoline-7-carboxamide]
12 | > 10 | C[C@H]1c2ccc(C(=O)N(CCO)Cc3c(F)cc(F)cc3F)cc2N(Cc2c(F)cccc2Cl)C(=O)N1C [Example 151, (S)-1-(2-Chloro-6-fluorobenzyl)-N-(2-hydroxyethyl)-3,4-dimethyl-2-oxo-N-(2,4,6-trifluorobenzyl)-1,2,3,4-tetrahydroquinazoline-7-carboxamide]
13 | > 10 | CN1Cc2ccc(C(=O)NCCn3cncn3)cc2N(Cc2c(F)cccc2Cl)C1=O [Example 26, N-(2-(1H-1,2,4-triazol-l-yl)ethyl)-1-(2-chloro-6-fluorobenzyl)-3-methyl-2-oxo-1,2,3,4-tetrahydroquinazoline-7-carboxamide]
14 | < 1 | CC1c2ccc(C(=O)NCc3c(F)cc(F)cc3F)cc2N(Cc2ccccc2)C(=O)N1C (stereo not shown) [Example 191, 1-benzyl-3,4-dimethyl-2-oxo-N-(2,4,6-trifluorobenzyl)-1,2,3,4-tetrahydroquinazoline-7-carboxamide]

The remaining lines, values behind:

Row | Structure (SMILES) | EC50 [µM]
15 | CN1Cc2ccc(C(=O)NCc3cc4cc([N+](=O)[O-])ccc4o3)cc2N(Cc2c(F)cccc2Cl)C1=O [Example 48, 1-(2-chloro-6-fluorobenzyl)-3-methyl-N-((5-nitrobenzofuran-2-yl)methyl)-2-oxo-1,2,3,4-tetrahydroquinazoline-7-carboxamide] | > 10
16 | CN1Cc2ccc(C(=O)NCc3cccc4c3OCO4)cc2N(Cc2c(F)cccc2Cl)C1=O [Example 43, N-(benzo[d][1,3]dioxol-4-ylmethyl)-1-(2-chloro-6-fluorobenzyl)-3-methyl-2-oxo-1,2,3,4-tetrahydroquinazoline-7-carboxamide] | > 10
17 | CN1Cc2ccc(C(=O)NCc3c(F)cc(F)cc3F)cc2N(Cc2cn(C)nn2)C1=O [Example 55, 3-methyl-1-((1-methyl-1H-1,2,3-triazol-4-yl)methyl)-2-oxo-N-(2,4,6-trifluorobenzyl)-1,2,3,4-tetrahydroquinazoline-7-carboxamide] | > 10
18 | COc1cc(F)ccc1CN1C(=O)N(C)Cc2ccc(C(=O)NCc3c(F)cc(F)cc3F)cc21 [Example 46, l-(4-fluoro-2-methoxybenzyl)-3-methyl-2-oxo-N-(2,4,6-trifluorobenzyl)-1,2,3,4-tetrahydroquinazoline-7-carboxamide] | 1 to 10
19 | Cc1nc(CN2C(=O)N(C)Cc3ccc(C(=O)NCc4c(F)cc(F)cc4F)cc32)co1 [Example 36, 3-methyl-1-((2-methyloxazol-4-yl)methyl)-2-oxo-N-(2,4,6-trifluorobenzyl)-l,2,3,4-tetrahydroquinazoline-7-carboxamide] | > 10
20 | CN1Cc2ccc(C(=O)NCc3c(F)cc(F)cc3F)cc2N(Cc2cn3ccccc3n2)C1=O [Example 65, 1-(imidazo[1,2-a]pyridin-2-ylmethyl)-3-methyl-2-oxo-N-(2,4,6-trifluorobenzyl)-1,2,3,4-tetrahydroquinazoline-7-carboxamide] | > 10
21 | C[C@H]1c2ccc(C(=O)NCc3c(F)cc(F)cc3F)cc2N(Cc2cc(O)c(O)cc2F)C(=O)N1C [Example 274, (S)-1-(2-fluoro-4,5-dihydroxybenzyl)-3,4-dimethyl-2-oxo-N-(2,4,6-trifluorobenzyl)-1,2,3,4-tetrahydroquinazoline-7-carboxamide] | 1 to 10
22 | CN1Cc2ccc(C(=O)NCc3ccc4c(c3)CC(=O)N4)cc2N(Cc2c(F)cccc2Cl)C1=O [Example 59, 1-(2-chloro-6-fluorobenzyl)-3-methyl-2-oxo-N-((2-oxoindolin-5-yl)methyl)-1,2,3,4-tetrahydroquinazoline-7-carboxamide] | > 10
23 | C[C@H]1c2ccc(C(=O)NCc3c(F)cc(F)cc3F)cc2N(Cc2c(Cl)cn(C)c(=O)c2F)C(=O)N1C [Example 288, (S)-1-((5-chloro-3-fluoro-1-methyl-2-oxo-1,2-dihydropyridin-4-yl)methyl)3,4-dimethyl-2-oxo-N-(2,4,6-trifluorobenzyl)-1,2,3,4-tetrahydroquinazoline-7-carboxamide] | 1 to 10
24 | CN1Cc2ccc(C(=O)NCc3cc4cc(O)ccc4o3)cc2N(Cc2c(F)cccc2Cl)C1=O [Example 27, 1-(2-chloro-6-fluorobenzyl)-N-((5-hydroxybenzof uran-2-yl)methyl)-3-methyl-2-oxo-1.2,3,4-tetrahydroquin azoline-7-carboxamide] | 1 to 10
25 | C[C@H]1c2ccc(C(=O)NCc3c(F)cc(F)cc3F)cc2N(Cc2c(F)cc(OCCCN)cc2F)C(=O)N1C [Example 280, (S)-1-(4-(3-aminopropoxy)-2,6-difluorobenzyl)-3,4-dimethyl-2-oxo-N-(2,4,6-trifluorobenzyl)-1,2,3,4-tetrahydroquinazoline-7-carboxamide] | < 1
26 | COc1cc(F)cc(CNC(=O)c2ccc3c(c2)N(Cc2c(F)cccc2Cl)C(=O)N(C)[C@H]3C)c1 [Example 248, (S)-1-(2-chloro-6-fluorobenzyl)-N-(3-fluoro-5-methoxybenzyl)-3,4-dimethyl-2-oxo-1,2,3,4-tetrahydroquinazoline-7-carboxamide] | 1 to 10
27 | CN1Cc2ccc(C(=O)NCc3c(F)cc(F)cc3F)cc2N(Cc2ccccc2Cl)C1=O [Example 19, l-(2-chlorobenzyl)-3-methyl-2-oxo-N-(2,4,6-trifluorobenzyl)-1,2,3,4-tetrahydroquinazoline-7-carboxamide] | 1 to 10
28 | CC1c2ccc(C(=O)NCc3c(F)cc(F)cc3F)cc2N(Cc2cc(F)cc(F)c2)C(=O)N1C (stereo not shown) [Example 152, 1-(3,5-difluorobenzyl)-3,4-dimethyl-2-oxo-N-(2,4,6-trifluorobenzyl)-1,2,3,4-tetrahydroquinazoline-7-carboxamide] | < 1
